We go through 30 compounds from article PMC12136037, “Type II kinase inhibitors that target Parkinson’s disease–associated LRRK2” (Science Advances, 2025).

Common to all, as to experiment: DSF 100 kinase selectivity screen;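 note: compound tested at 20 µM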
Common to all, as to type: binding

The target of test [1] is T1, ~100 representative kinases (Homo sapiens, UniProt P78368).
T1 construct: Recombinant protein kinase domains with a concentration of 2 μM
Particulars: Protein CSNK1G2; average of three replicates. In outline:
(§1)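 Each kinase domain, at 2 μM, is mixed with 20 μM test compound and SYPRO Orange in Hepes (20 mM, pH 7.5) with 500 mM NaCl. Temperature is then raised at 3°C/min and fluorescence-monitored unfolding yields the melting temperature change, ΔTm in degrees Celsius.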

Test [2] has as its target T2, ~100 representative kinases (Homo sapiens, UniProt O15164).
T2 construct: Recombinant protein kinase domains with a concentration of 2 μM
T2 sequence (O15164 1-1050): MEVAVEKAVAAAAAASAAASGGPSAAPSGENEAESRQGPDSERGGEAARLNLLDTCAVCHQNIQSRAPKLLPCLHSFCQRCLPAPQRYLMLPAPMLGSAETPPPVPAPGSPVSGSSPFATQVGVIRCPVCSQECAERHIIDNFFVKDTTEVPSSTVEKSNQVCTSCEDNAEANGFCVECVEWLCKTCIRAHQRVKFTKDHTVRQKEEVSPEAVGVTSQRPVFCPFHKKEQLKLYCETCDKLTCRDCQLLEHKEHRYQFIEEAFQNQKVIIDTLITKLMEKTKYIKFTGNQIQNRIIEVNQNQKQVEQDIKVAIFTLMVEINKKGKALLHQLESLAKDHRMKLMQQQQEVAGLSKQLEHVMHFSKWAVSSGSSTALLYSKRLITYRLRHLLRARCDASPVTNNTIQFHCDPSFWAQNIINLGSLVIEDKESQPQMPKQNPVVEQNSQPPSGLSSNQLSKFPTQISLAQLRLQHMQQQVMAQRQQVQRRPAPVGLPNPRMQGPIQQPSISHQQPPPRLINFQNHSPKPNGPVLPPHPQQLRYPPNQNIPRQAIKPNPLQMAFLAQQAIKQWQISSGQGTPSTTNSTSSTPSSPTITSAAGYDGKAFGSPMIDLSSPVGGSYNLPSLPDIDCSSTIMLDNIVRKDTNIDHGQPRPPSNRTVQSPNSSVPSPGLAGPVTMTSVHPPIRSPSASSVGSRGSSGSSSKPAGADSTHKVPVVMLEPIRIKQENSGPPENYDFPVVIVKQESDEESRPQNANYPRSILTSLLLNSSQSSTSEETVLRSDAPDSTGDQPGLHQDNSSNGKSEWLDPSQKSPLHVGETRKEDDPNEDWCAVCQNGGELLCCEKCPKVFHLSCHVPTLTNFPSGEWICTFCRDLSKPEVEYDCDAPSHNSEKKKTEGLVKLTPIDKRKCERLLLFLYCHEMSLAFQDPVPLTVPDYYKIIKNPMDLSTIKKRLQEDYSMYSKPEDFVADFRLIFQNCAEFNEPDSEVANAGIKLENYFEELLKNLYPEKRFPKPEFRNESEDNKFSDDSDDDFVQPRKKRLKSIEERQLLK
The conditions noted are these: Protein TIF1; DSF; average of three replicates. In outline:
as §1

In test [3] the target is T3, ~100 representative kinases (Homo sapiens, UniProt O75385).
T3 construct: Recombinant protein kinase domains with a concentration of 2 μM
T3 sequence (O75385 1-1050): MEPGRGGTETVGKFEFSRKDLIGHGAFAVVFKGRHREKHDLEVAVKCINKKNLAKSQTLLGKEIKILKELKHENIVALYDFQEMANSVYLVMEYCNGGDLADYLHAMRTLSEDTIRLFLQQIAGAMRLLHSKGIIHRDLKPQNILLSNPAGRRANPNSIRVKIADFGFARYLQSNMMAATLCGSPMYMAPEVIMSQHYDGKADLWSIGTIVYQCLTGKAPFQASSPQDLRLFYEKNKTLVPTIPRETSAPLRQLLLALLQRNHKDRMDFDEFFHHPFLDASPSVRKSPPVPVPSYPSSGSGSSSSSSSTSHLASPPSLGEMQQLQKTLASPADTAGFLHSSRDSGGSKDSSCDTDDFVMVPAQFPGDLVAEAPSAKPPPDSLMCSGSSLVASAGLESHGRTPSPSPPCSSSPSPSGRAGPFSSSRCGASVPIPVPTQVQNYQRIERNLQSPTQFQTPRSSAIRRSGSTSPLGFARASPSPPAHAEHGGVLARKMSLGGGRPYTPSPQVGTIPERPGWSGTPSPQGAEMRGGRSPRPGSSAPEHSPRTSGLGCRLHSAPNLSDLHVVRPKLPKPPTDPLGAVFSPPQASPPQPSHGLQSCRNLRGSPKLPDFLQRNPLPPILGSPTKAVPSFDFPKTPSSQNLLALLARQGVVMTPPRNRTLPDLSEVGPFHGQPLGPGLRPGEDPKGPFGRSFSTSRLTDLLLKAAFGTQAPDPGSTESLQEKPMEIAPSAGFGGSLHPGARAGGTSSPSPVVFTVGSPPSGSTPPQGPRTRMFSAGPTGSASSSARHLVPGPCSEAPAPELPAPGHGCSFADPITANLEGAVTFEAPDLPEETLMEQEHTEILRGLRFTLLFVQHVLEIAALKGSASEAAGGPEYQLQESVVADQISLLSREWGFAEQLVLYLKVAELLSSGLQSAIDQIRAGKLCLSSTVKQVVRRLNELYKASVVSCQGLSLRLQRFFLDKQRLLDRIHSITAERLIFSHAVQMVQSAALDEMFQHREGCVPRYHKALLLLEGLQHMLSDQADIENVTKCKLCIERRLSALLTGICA
The conditions noted are these: Protein ULK1; DSF; average of three replicates. The method in brief: as §1

T1 sequence (P78368 whole entry, the tested form may be a part): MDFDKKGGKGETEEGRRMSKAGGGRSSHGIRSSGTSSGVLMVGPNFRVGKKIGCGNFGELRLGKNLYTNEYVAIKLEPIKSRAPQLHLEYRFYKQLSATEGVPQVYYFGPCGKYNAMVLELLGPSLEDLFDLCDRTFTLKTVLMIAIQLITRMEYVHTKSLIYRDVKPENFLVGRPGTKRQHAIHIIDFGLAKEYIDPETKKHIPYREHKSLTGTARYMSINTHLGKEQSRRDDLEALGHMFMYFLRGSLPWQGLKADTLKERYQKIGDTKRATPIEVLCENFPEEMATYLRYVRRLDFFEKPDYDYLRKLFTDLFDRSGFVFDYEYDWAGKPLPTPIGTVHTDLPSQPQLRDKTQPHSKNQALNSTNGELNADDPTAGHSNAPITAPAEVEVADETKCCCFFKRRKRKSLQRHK

As to `O=C(Nc1cccc(-c2c[nH]c3ncnc(N4CCOCC4)c23)c1)C1(C(=O)Nc2ccc(F)c(Cl)c2)CC1` [Compound 18], the dTm in test [1] amounted to 0.27 K.
The compound `CCc1ccc(NC(=O)C2(C(=O)Nc3cccc(-c4c[nH]c5ncnc(N6CCOCC6)c45)c3)CC2)cc1` [Compound 15] displayed a dTm in test [1] of 0.60 K.
In test [1], `O=C(Nc1cccc(-c2c[nH]c3ncnc(N4CCOCC4)c23)c1)c1cccn(-c2ccc(F)cc2)c1=O` [Compound 4] showed a dTm of 0.40 K.
As for `O=C(Nc1ccccc1)C1(C(=O)Nc2cccc(-c3c[nH]c4ncnc(N5CCOCC5)c34)c2)CC1` [Compound 12], the dTm in test [1] was found to be 0.39 K.
The same measure, in the same setting: the value for `Cc1cc(F)ccc1NC(=O)C1(C(=O)Nc2cccc(-c3c[nH]c4ncnc(N5CCOCC5)c34)c2)CC1` [Compound 24] was 0.62 K.
For `O=C(Nc1cc(F)cc(Br)c1)C1(C(=O)Nc2cccc(-c3c[nH]c4ncnc(N5CCOCC5)c34)c2)CC1` [Compound 27], the dTm in test [2] is 4.20 K; in test [3], 6.71 K.
`O=C(Nc1ccc(Cl)cc1)C1(C(=O)Nc2cccc(-c3c[nH]c4ncnc(N5CCOCC5)c34)c2)CC1` [Compound 13] displayed a dTm in test [1] of 0.51 K.
For the compound `COc1cc(S(C)(=O)=O)ccc1Nc1nc(N(C)C)c2c(Cl)c[nH]c2n1` [Compound 37], the dTm was -0.80 K in test [2] and -0.88 K in test [3].
In test [1], `O=C(Nc1cccc(-c2c[nH]c3ncnc(N4CCOCC4)c23)c1)C1(C(=O)Nc2ccc(F)c(F)c2)CC1` [Compound 17] came in with a dTm of 0.36 K.
Consider `CNC(=O)c1cc(Oc2ccc(NC(=O)Nc3cc(C(C)(C)C)nn3-c3ccc4ncccc4c3)c(F)c2)ccn1` [Rebastinib, reference compound], for which the results for the dTm in test [2] and in test [3] were 0.87 K and 5.73 K, respectively.
With `O=C(Nc1cccc(-c2c[nH]c3ncnc(N4CCOCC4)c23)c1)C1(C(=O)Nc2cc(Br)c(F)cc2F)CC1` [Compound 25], the dTm in test [2] came out at 3.01 K; in test [3], 7.16 K.
`CC(C)(C)c1cc(NC(=O)Nc2cccc(-c3c[nH]c4ncnc(N5CCOCC5)c34)c2)n(-c2ccc3ncccc3c2)n1` [Compound 28] returned a dTm in test [1] of 0.05 K.
`COc1cc(C(=O)N2CCOCC2)c(F)cc1Nc1nc(N(C)C)c2c(Cl)c[nH]c2n1` [Compound 36]: the values for the dTm in test [2] and in test [3] were -2.24 K and -0.79 K, respectively.
In turn, `COc1cc2c(Oc3ccc(NC(=O)C4(C(=O)Nc5ccc(F)cc5)CC4)cc3F)ccnc2cc1OCCCN1CCOCC1` [Foretinib, reference compound] registered a dTm in test [1] of 0.37 K.
With `Cc1ccc(-n2nc(C(C)(C)C)cc2NC(=O)Nc2cccc(-c3c[nH]c4nc(Cl)nc(N5CCOCC5)c34)c2)cc1` [Compound 30], the dTm in test [2] was 1.73 K; in test [3], 2.91 K.
For `CC(C)(C)c1cccc(NC(=O)C2(C(=O)Nc3cccc(-c4c[nH]c5ncnc(N6CCOCC6)c45)c3)CC2)c1` [Compound 22], the dTm in test [2] is 5.42 K; in test [3] it was 9.16 K.
Consider `COc1ccc(NC(=O)C2(C(=O)Nc3cccc(-c4c[nH]c5ncnc(N6CCOCC6)c45)c3)CC2)cc1` [Compound 16], for which, in test [1], the dTm is given as 0.71 K.
On to `CC(=O)N1CCN(c2nc(Cl)nc3[nH]cc(-c4cccc(NC(=O)Nc5cc(C(C)(C)C)nn5-c5ccc(C)cc5)c4)c23)CC1` [Compound 31], for which the dTm worked out at 0.90 K in test [2] and 2.80 K in test [3].
For `Cc1cc(NC(=O)C2(C(=O)Nc3ccc(F)cc3)CC2)cc(-c2c[nH]c3ncnc(N4CCOCC4)c23)c1` [Compound 6] the same measures were 2.83 K and 5.26 K.
The like results for `O=C(Nc1cccc(-c2c[nH]c3ncnc(N4CCOCC4)c23)c1)C1(C(=O)Nc2ccc(F)c(Br)c2F)CC1` [Compound 26] were, in that order, 2.87 K and 8.48 K.
On to `CN[C@@H]1C[C@H]2O[C@@](C)([C@@H]1OC)n1c3ccccc3c3c4c(c5c6ccccc6n2c5c31)C(=O)NC4` [Staurosporine], for which the dTm in test [3] was found to be 14.02 K.
For `O=C(Nc1cccc(-c2c[nH]c3ncnc(N4CCOCC4)c23)c1)C1(C(=O)Nc2cccc3c2CCC3)CC1` [Compound 11], the dTm amounted to 3.41 K in test [2] and 6.92 K in test [3].
Compound `O=C(Nc1ccc(F)cc1)C1(C(=O)Nc2cccc(-c3c[nH]c4ncnc(N5CCOCC5)c34)c2)CC1` [Compound 2] yielded a dTm in test [1] of 0.45 K.
Turning to `CCSc1nc(NC)c2c(-c3cccc(NC(=O)Nc4cc(C(C)(C)C)nn4-c4ccc(C)cc4)c3)c[nH]c2n1` [Compound 32], the values for the dTm in test [2] and in test [3] were 0.82 K and 0.62 K, respectively.
The like results for `O=C(Nc1cccc(-c2c[nH]c3ncnc(N4CCOCC4)c23)c1)C1(C(=O)Nc2ccc(F)c(Br)c2)CC1` [Compound 19] were, in that order, 3.26 K and 12.52 K.
`COc1cc(NC(=O)C2(C(=O)Nc3cccc(-c4c[nH]c5ncnc(N6CCOCC6)c45)c3)CC2)ccc1F` [Compound 21] yielded a dTm in test [1] of 0.57 K.
Still for that read-out and setting: the value for `Cc1cc(NC(=O)C2(C(=O)Nc3cccc(-c4c[nH]c5ncnc(N6CCOCC6)c45)c3)CC2)ccc1F` [Compound 20] was 0.39 K.
On the same count and under the same terms, the value for `O=C(Nc1cccc(-c2c[nH]c3ncnc(N4CCOCC4)c23)c1)C1(C(=O)Nc2ccc(F)cc2F)CC1` [Compound 23] was 0.54 K.
For the compound `Cc1ccc(-n2nc(C(C)(C)C)cc2NC(=O)Nc2cccc(-c3c[nH]c4ncnc(N5CCOCC5)c34)c2)cc1` [Compound 29], the dTm in test [2] is 0.97 K; in test [3] it was 10.70 K.
For `Cc1ccc(NC(=O)C2(C(=O)Nc3cccc(-c4c[nH]c5ncnc(N6CCOCC6)c45)c3)CC2)cc1` [Compound 14], in test [1], the dTm is reported as 0.81 K.
